Source: US20230381176A1, “A PHARMACEUTICAL COMPOSITION AND USE THEREOF FOR TREATMENT OF CANCER” (Ascentage Pharma (Suzhou) Co., Ltd., priority 2020, published 2023)
Values belong to the compound of their own block, whether it stands above or below them.

Key:
[1] = test system: PTK2 high ovarian PDX OV2423; experiment: PTK2 high ovarian PDX model OV2423, Compound 5 and carboplatin and/or paclitaxel; assay type: in vivo, mouse
Method: (§1) A subcutaneous xenograft tumor model of human tumor immunodeficient mice was established by cell inoculation: tumor cells in logarithmic growth phase were collected, counted, resuspended in 1×PBS, and the cell suspension concentration was adjusted to 2.5-5 ×10^7/mL. The tumor cells were inoculated subcutaneously in the right side of immunodeficient mice with a 1 mL syringe ([…]), 5-10×10^6/0.2 mL/mouse. All animal experiments were strictly in accordance with the specifications for the use and management of experimental animals in GenePharma Co., Ltd. and Suzhou Ascentage Pharma Co., Ltd. The calculation of relevant parameters refers to the Chinese NMPA “Guidelines for Non-Clinical Research Techniques of Cytotoxic Anti-tumor Drugs”.
(§2) Animal body weight and tumor size were measured twice weekly during the experiment. The state of the animal and the presence or absence of death were observed every day. The growth of tumor and the effects of treatment on normal behavior of animals were monitored routinely, specifically involving experimental animal activity, feeding and drinking, weight gain or loss, eyes, clothing hair and other abnormalities. The deaths and clinical symptoms observed during the experiment were recorded in the raw data. All operations for administration and measurement of mouse body weight and tumor volume were performed in a clean bench. According to the requirements of the experimental protocol, after the end of the last administration, plasma and tumor tissues were collected, weighed and photographed. The plasma and tumor samples were frozen at −80° C. for ready-to-use.
(§3) Tumor volume (TV) is calculated as: TV=a×b^2/2, wherein a and b represent the length and width of the tumor to be measured, respectively.
(§4) The relative tumor volume (RTV) is calculated as: RTV=Vt/V1, wherein V1 is the tumor volume at the start of grouping and administration, and Vt is the tumor volume measured on the t day after administration.
(§5) Change of body weight (%)=(measured body weight−body weight at the start of grouping)/body weight at the start of grouping×100%.
(§6) A dose of drug is considered to be severely toxic if the body weight of mouse is reduced by more than 20% or the number of drug-related deaths exceeds 20%.
(§7) According to the description by Clarke R., Issues in experimental design and endpoint analysis in the study of experimental cytotoxic agents in vivo in breast cancer and other models [J]. Breast Cancer Research & Treatment, 1997, 46(2-3): 255-278, synergy analysis was evaluated using the following formula: synergy factor=((A/C)×(B/C))/(AB/C); A=RTV value of drug A alone group; B=RTV value of drug B alone group; C=RTV value of the solvent control group, and AB=RTV value of the A and B combination group.
(§8) Use of mRECIST (Gao et al., 2015) measured tumor responses included stable disease (SD), partial tumor regression (PR), and complete regression (CR), determined by comparing tumor volume change at day t to its baseline: tumor volume change (%)=(Vt−V1)/V1. The BestResponse was the minimum value of tumor volume change (%) for t≥10. For each time t, the average of tumor volume changes from t=1 to t was also calculated. BestAvgResponse was defined as the minimum value of this average for t≥10. The criteria for response (mRECIST) were adapted from RECIST criteria (Gao et al., 2015; Therasse et al., 2000) and defined as follows: mCR, BestResponse<−95% and BestAvg Response<−40%; mPR, BestResponse<−50% and BestAvgResponse<−20%; mSD, BestResponse<35% and BestAvgResponse<30%; mPD, not otherwise categorized. SD, PR, and CR were considered responders and used to calculate response rate (%). […] Body weight of animals were monitored simultaneously. The change in body weight was calculated based on the animal weight of the first day of dosing (day 1). Tumor volume and changes in body weight (%) were represented as the mean±standard error of the mean (SEM).

ovarian PDX OV1658 = experiment: Ovarian PDX model OV1658, Compound 5 and carboplatin and/or paclitaxel; assay type: in vivo, mouse
Method: as §1, §2, §3, §4, §5, §6, §7, §8

[2] = test system: PTK2 high ovarian PDX OV1385; experiment: PTK2 high ovarian PDX model OV1385, Compound 5 and carboplatin and/or paclitaxel; assay type: in vivo, mouse
Method: as §1, §2, §3, §4, §5, §6, §7, §8

[3] = test system: PTK2 high ovarian PDX OV2018; experiment: PTK2 high ovarian PDX model OV2018, Compound 5 and paclitaxel; assay type: in vivo, mouse
Method: as §1, §2, §3, §4, §5, §6, §7, §8

[4] = test system: OVCAR3 s.c. ovarian xenograft; assay type: in vivo
Method: as §1, §2, §3, §4, §5, §6, §7, §8

[5] = test system: OVCAR3 s.c. ovarian xenograft; experiment: OVCAR3 s.c. ovarian xenograft model, overcoming resistance to paclitaxel / paclitaxel and carboplatin; assay type: in vivo, mouse
Method: as §1
as §2, with “All operations for administration and measurement of mouse body weight and tumor volume were performed in a clean bench. According to the requirements of the experimental protocol, after the end of the last administration, plasma and tumor tissues were collected, weighed and photographed.” left out
as §3, §4
Change of body weight (%)=(measured body weight−body weight at the start of grouping)/body weight at the start of grouping×100%. […]
Use of mRECIST (Gao et al., 2015) measured tumor responses included stable disease (SD), partial tumor regression (PR), and complete regression (CR), determined by comparing tumor volume change at day t to its baseline: tumor volume change (%)=(Vt−V1)/V1. […]

NCI-H2228 tumor cells = experiment: Cell viability WST (CCK-8) assay, combination of Compound 5 and Compound 34; assay type: cell-based; settings: Homo sapiens, 72 hours, single agent, read-out: Compound B IC50
Method: Cell plating: Anti-proliferative effects were detected by a CCK-8 (Cell Counting Kit-8, Shanghai life iLab, China) assay based on water soluble tetrazolium salt (WST). The cells were seeded in 96-well plates, and only 95 μL of complete medium was added to each negative control group. 95 μL of complete medium cell suspension was added to each well to be tested, and the cell density was (5-10)×10^4/hole. Dosing (protection from light): […] After 72 hours of action by using 6 different concentrations of Compound 34 with 3 fixed doses of Compound 5, the combination effect of Compound 5 an Compound 34 was tested. Reading: […] The plates were continuously incubated at 37 ° C. for 2-4 hours in a CO2 incubator. The OD values were measured using a microplate reader (SpectraMax Plus 384, Molecular Devices, LLC., US) under A450 nm. […] (O.D. of test well−O.D. of blank control well)/(O.D. of cell control well−O.D. of blank control well)×100%. IC50 values were calculated using Graphpad Prism 6.0 software for nonlinear regression data analysis method.

[6] = Compound 5 50 mg/kg orally once per day, carboplatin 30 mg/kg i.p. once a week, paclitaxel 10 mg/kg i.v. once a week, 28 days
[7] = Compound 5 50 mg/kg orally once per day, carboplatin 30 mg/kg i.p. once a week, paclitaxel 10 mg/kg i.v. once a week, 19 days
[8] = best response, animals per class
[9] = Compound 5 50 mg/kg orally once per day, carboplatin 30 mg/kg i.p. once a week, paclitaxel 10 mg/kg i.v. once a week, 35 days
[10] = Compound 5 50 mg/kg orally once per day, paclitaxel 10 mg/kg i.v. once a week, 35 days
[11] = Compound 5 100 mg/kg orally once per day, paclitaxel 10 mg/kg i.v. once a week, carboplatin 30 mg/kg i.v. once a week

SMILES: CC(=O)O[C@H]1C(=O)[C@@]2(C)[C@H]([C@H](OC(=O)c3ccccc3)[C@]3(O)C[C@H](OC(=O)[C@H](O)[C@@H](NC(=O)c4ccccc4)c4ccccc4)C(C)=C1C3(C)C)[C@]1(OC(C)=O)CO[C@@H]1C[C@@H]2O [Paclitaxel, paclitaxel]
RTV on Day 28 after administration (mean ± standard error) [1, 6]: 9.54 ± 1.73
T/C on Day 28 after administration (%) [1, 6]: 50.80%
mRECIST ([1]; animals per class): 2/2 PD
antitumor activity (conclusion in words) ([1]; mouse, in vivo): moderate antitumor activity
RTV on Day 19 after administration (mean ± standard error) (ovarian PDX OV1658; [7]): 11.79
T/C on Day 19 after administration (%) (ovarian PDX OV1658; [7]): 86.31%
mRECIST on Day 19 after administration (ovarian PDX OV1658; Day 19, animals per class): 2/2 PD
mRECIST (ovarian PDX OV1658; [8]): 2/2 PD
antitumor activity (conclusion in words) (ovarian PDX OV1658; mouse, in vivo): minor antitumor activity
RTV on Day 35 after administration (mean ± standard error) [2, 9]: 1.80 ± 0.75
T/C on Day 35 after administration (%) [2, 9]: 44.55%
mRECIST on Day 35 after administration ([2]; Day 35, animals per class): 2/2 PD
mRECIST [2, 8]: 2/2 PD
antitumor activity (conclusion in words) ([2]; mouse, in vivo): moderate antitumor activity
RTV on Day 35 after administration (mean ± standard error) [3, 10]: 2.87 ± 0.24
T/C on Day 35 after administration (%) [3, 10]: 118.60%
mRECIST on Day 35 after administration ([3]; Day 35, animals per class): 2/2 PD
mRECIST [3, 8]: 2/2 PD
antitumor activity (conclusion in words) ([3]; mouse, in vivo): no antitumor activity
RTV on Day 35 after administration (mean ± standard error) [4, 11]: 8.02 ± 1.30
T/C on Day 35 after administration (%) [4, 11]: 52.14%
mRECIST ([4]; animals per class): 5/5 PD
antitumor activity (conclusion in words) ([4]; mouse, in vivo): moderate antitumor activity
Overall regression rate (ORR), % ([4]; proportion of animals with CR or PR): 0%
Disease control rate (DCR), % ([4]; proportion of animals with CR, PR or SD): 0%
DCR (%) ([5]; mouse, in vivo): 20%
ORR (%) ([5]; mouse, in vivo): 0%
RTV on Day 56 after administration (mean ± standard error) ([5]; paclitaxel 10 mg/kg i.v. once a week, carboplatin 30 mg/kg i.v. once a week, Compound 5 100 mg/kg orally once per day from Day 15): 5.19 ± 0.62

IC50 (NCI-H2228 tumor cells): 1680 nM
SMILES: Cc1ccc(C(=O)Nc2ccc(CN3CCN(C)CC3)c(C(F)(F)F)c2)cc1C#Cc1cnc2[nH]ncc2c1 [Compound 34]
